Measurements reported in patent publication US8071838B2, “Targeted and regional cellular ablation in zebrafish” (Washington University in St. Louis, priority 2003, dated 2011).

Experiments:
nitroreductase = nitroreductase (Escherichia coli, UniProt P38489); conditions: substrate for nitroreductase; due to permeability of the cytotoxic metabolite (Bridgewater et al., 1997; Wilson et al., 2002); cited from earlier work
[1] = system: unc-CFP-Nitro expressing cells; assay: nitroreductase-based pro-drug conversion and cellular ablation in transient transgenic zebrafish embryos; type: in vivo; conditions: metronidazole 10 mM, 5 mM, 2.5 mM in embryo medium; treated from 62 hpf, imaged at 118 hpf; untreated embryos keep both reporters
Method: In order to determine the efficacy of nitroreductase-based pro-drug conversion and subsequent cellular ablation in transient transgenic zebrafish the following experiment was performed: Male and female zebrafish from a ‘transparent’ strain (e.g., harboring the roy mutation) were allowed to mate over egg collection chambers at light onset. Fertilized eggs were collected every 15 minutes and placed in petri dishes containing embryo medium (0.3X Danieau's solution containing 100 units/ml penicillin and 100 μg/ml streptomycin). Eggs were dispensed into a silicone chambers and oriented such that the cell side was facing up. For injections, DNA plasmids were diluted into 1X Danieau's solution to a final concentration of 10 ng/μl. DNA plasmids used for this experiment included: 1) An alpha-1-tubulin promoter driving expression of a Gal4/VP 16 “driver” protein (α-1-tub::Gal4/VP16); 2) A UAS regulated red control fluorescent reporter protein (UAS::DsRed) and; 3) A UAS regulated cyan fluorescent reporter protein (unc-CFP) fused to nitroreductase (UAS::unc-CFP-Nitro, see FIG. 2 and FIG. 3). […] At 28 hpf, injected embryos were screened for equivalent expression of the DsRed reporter (control cells) and the unc-CFP-Nitro ablation/reporter (targeted cells) using standard fluorescence microscopy. […]

zebrafish = conditions: in vivo; cited from earlier work

Chain of nitroreductase (P38489 whole entry): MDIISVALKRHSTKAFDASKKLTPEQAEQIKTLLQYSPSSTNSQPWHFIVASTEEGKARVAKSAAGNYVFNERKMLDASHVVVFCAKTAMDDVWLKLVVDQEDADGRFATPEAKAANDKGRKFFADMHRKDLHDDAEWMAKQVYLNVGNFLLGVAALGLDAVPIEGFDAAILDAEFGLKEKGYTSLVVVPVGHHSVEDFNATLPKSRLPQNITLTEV

Structure (SMILES)	bystander effect (nitroreductase)	ablation of reporter-expressing cells (confocal imaging of unc-CFP-Nitro vs DsRed control reporter) [1]	general toxicity (zebrafish)
NC(=O)c1cc(N2CC2)c([N+](=O)[O-])cc1[N+](=O)[O-] [CE 1954, 5-(aziridin-1-yl)-2,4-dinitrobenzamide]	specifically promote the bystander effect		
Cc1ncc([N+](=O)[O-])n1CCO [metronidazole]		selective elimination of unc-CFP-Nitro expressing cells	no general toxicity
